Measured values from ChEMBL document CHEMBL2331417, “Kinetic and anion inhibition studies of a β-carbonic anhydrase (FbiCA 1) from the C4 plant Flaveria bidentis” (Bioorg Med Chem Lett, 2013).

Columns and labels:
[1] = Inhibition of Flaveria bidentis beta-carbonic anhydrase-1 preincubated for 15 mins by stopped flow CO2 hydration assay
[2] = Inhibition of Helicobacter pylori beta-carbonic anhydrase preincubated for 15 mins by stopped flow CO2 hydration assay

Row | SMILES | Ki [1] [µM] | Ki [2] [µM]
2 | CCN(CC)C(=S)S [DITIOCARB SODIUM] | 8 | 7.4
3 | O=[As](O)(O)c1ccccc1 [PHENYLARSONIC ACID] | 6 | –
4 | OB(O)c1ccccc1 [PHENYLBORONIC ACID] | 8 | 73
5 | [N-]=[N+]=[N-] [SODIUM AZIDE] | 460 | 800
6 | O=C([O-])O.[Na+] [SODIUM BICARBONATE] | 660 | –
7 | O=S([O-])O.[Na+] [SODIUM BISULFITE] | 55300 | 630
8 | [Br-].[Na+] [SODIUM BROMIDE] | 670 | 380
9 | O=C([O-])[O-].[Na+].[Na+] [SODIUM CARBONATE] | 840 | 420
10 | S=C(S)S [SODIUM CARBONOTRITHIOATE] | 60 | 210
11 | [Cl-].[Na+] [SODIUM CHLORIDE] | 740 | 560
12 | [F-].[Na+] [SODIUM FLUORIDE] | 710 | 670
13 | S [SODIUM HYDROSULFIDE] | 860 | 580
14 | O=S(=O)(O)ONOS(=O)(=O)O [SODIUM IMINODISULFATE] | 50900 | 700
15 | [I-].[Na+] [SODIUM IODIDE] | 710 | 630
16 | N=C=[Se] [SODIUM ISOSELENOCYANATE] | 880 | 970
17 | N=C=S [SODIUM ISOTHIOCYANATE] | 830 | 680
18 | O=[N+]([O-])[O-].[Na+] [SODIUM NITRATE] | 780 | 780
19 | O=NO [SODIUM NITRITE] | 570 | 670
20 | [O-][Cl+3]([O-])([O-])O [SODIUM PERCHLORATE] | > 200000 | 6500
21 | O=S(=O)(O)OOS(=O)(=O)O [SODIUM PERSULFATE] | 870 | 930
22 | O=P(O)(O)OP(=O)(O)O [SODIUM PYROPHOSPHATE] | 830 | 750
23 | O=[Se](=O)(O)O [SODIUM SELENATE] | 24500 | 650
24 | O=S(=O)([O-])[O-].[Na+].[Na+] [SODIUM SULFATE ANHYDROUS] | 620 | 570
25 | O=[Te](=O)(O)O [SODIUM TELLURATE] | 900 | 450
26 | O=BOB(O)OB(O)OB=O [SODIUM TETRABORATE] | 860 | 680
27 | F[B-](F)(F)F.[Na+] [SODIUM TETRAFLUOROBORATE] | > 200000 | > 200000
28 | NS(=O)(=O)O [SULFAMATE] | 5 | 94
29 | NS(N)(=O)=O [SULFAMIDE] | 4 | 72
